Values after ≈ are worked out from the molar mass of the structure shown.
Tests used:
[1] = test system: Neutrophil; assay: Inhibition of FMLP/CB-induced elastase release in human neutrophils after 5 mins by spectrophotometry; type: functional, cell-based
[2] = test system: Neutrophil; assay: Inhibition of FMLP/CB-induced superoxide anion generation in human neutrophils by ferricytochrome c reduction method; type: functional, cell-based
[3] = test system: RAW264.7; assay: Inhibition of NO production in LPS/IFN-gamma activated mouse RAW264.7 cells after 24 hrs by Griess assay; type: functional, cell-based
[4] = test system: Neutrophil; assay: Inhibition of FMLP/CB-induced superoxide anion generation in human neutrophils at 10 ug/ml by ferricytochrome c reduction method; type: functional
[5] = test system: Neutrophil; assay: Inhibition of FMLP/CB-induced elastase release in human neutrophils at 10 ug/ml after 5 mins by spectrophotometry; type: functional
[6] = Cytotoxicity against human neutrophils at 10 ug/ml after 15 mins by LDH release assay; type: cell-based; settings: neutrophil, 0.25 h
[7] = Mus musculus, RAW264.7, 24 h, read-out: IC50

Structure (SMILES)	IC50 [1]	IC50 [2]	IC50 [3, 7]	IC50 ([3]; raw264.7)	inhibition at 10 µg/mL [4]	inhibition at 10 µg/mL [5]	Activity [6]
C[C@@]12CCC[C@@](C)(C(=O)O)[C@H]1CC[C@]13C[C@H](CO)[C@@H](CC[C@H]12)C3	> 10 µg/mL	3.72 µg/mL (≈ 11.6 µM)			89.5%	45.9%	Non-toxic
CC(=O)OC[C@@]1(C(=O)O)CCC[C@@]2(C)[C@@H]3CC[C@H]4C[C@@]3(CC[C@H]12)C[C@@]4(O)COC(=O)C(C)C	6.82 µg/mL (≈ 14.7 µM)	> 10 µg/mL			46.7%	60.4%	Non-toxic
C=C(C)C(=O)O[C@H]1[C@H]2C(=C)C(=O)O[C@@H]2/C=C(\CO)CC/C=C(/C=O)[C@H]1O	> 10 µg/mL	> 10 µg/mL		Not Active	9.01%	20.8%	
CC1(C)OCC([C@]2(C)C=C3CC[C@@H]4[C@](C)(CO)C[C@@H](O)C[C@@]4(C)[C@@H]3CC2)O1 (stereo partly drawn)	> 10 µg/mL	> 10 µg/mL			38.4%	21.8%	
CC1(C)[C@H]2CCC3=C[C@@](C)(C(O)CO)CC[C@H]3[C@]2(C)CC[C@H]1O[C@@H]1O[C@H](CO)[C@@H](O)[C@H](O)[C@H]1O (stereo partly drawn)	> 10 µg/mL	> 10 µg/mL			5.86%	5.93%	
C[C@@]1(CO)CC(=O)C[C@@]2(C)[C@@H]3CC[C@](C)(C(O)CO)C=C3CC[C@H]12 (stereo partly drawn)	> 10 µg/mL	> 10 µg/mL			10.2%	-0.75%	
O=c1cc(N2CCOCC2)oc2c(-c3ccccc3)cccc12 [LY-294002]	0.92 µg/mL (≈ 2.99 µM)	0.4 µg/mL (≈ 1.3 µM)					
CC(=O)OC[C@@]1(C(=O)O)CCC[C@@]2(C)[C@@H]3CC[C@H]4C[C@@]3(CC[C@H]12)C[C@@]4(O)CO	> 10 µg/mL	> 10 µg/mL			32.1%	37%	
CC1(C)[C@H](O)CC[C@@]2(C)[C@@H]3CC[C@](C)(C(O)CO)C=C3CC[C@H]12 (stereo partly drawn)	> 10 µg/mL	> 10 µg/mL			35.8%	21.9%	
CC(=O)OC[C@@]1(C(=O)O)CCC[C@@]2(C)[C@@H]3CC[C@H]4C[C@@]3(CC[C@H]12)C[C@H]4COC(=O)C(C)C	3.64 µg/mL (≈ 8.11 µM)	> 10 µg/mL			35.2%	77.8%	Non-toxic
CC1(C)C[C@H]2[C@H]1CC[C@@]1(C)C[C@]2(O)CC[C@@H]1O	> 10 µg/mL	> 10 µg/mL		Not Active	10.2%	5.93%	
CC(=O)OCC(O)[C@]1(C)C=C2CC[C@@H]3C(C)(C)[C@H](O[C@@H]4O[C@H](CO)[C@@H](O)[C@H](O)[C@H]4O)CC[C@@]3(C)[C@@H]2CC1 (stereo partly drawn)	> 10 µg/mL	> 10 µg/mL			8.87%	4.44%	
COC(=O)[C@]1(C)CCC[C@@]2(C)[C@@H]3CC[C@@H]4C[C@@]3(CC[C@@H]21)C[C@@H]4CO	> 10 µg/mL	5.22 µg/mL (≈ 15.6 µM)			90.7%	27.7%	Toxic
C[C@@]12C[C@H](O)C[C@@](C)(C(=O)O)[C@H]1CCC1=C[C@@](C)(C(O)CO)CC[C@H]12 (stereo partly drawn)	> 10 µg/mL	> 10 µg/mL			5.18%	7.65%	

The next lines start with results.

IC50 [1]	IC50 [2]	IC50 [3, 7]	IC50 ([3]; raw264.7)	Structure (SMILES)	inhibition at 10 µg/mL [4]	inhibition at 10 µg/mL [5]	Activity [6]
> 10 µg/mL	> 10 µg/mL	18.9 µM		C=C1C(=O)O[C@@H]2C[C@]3(C)[C@@H](CCC(C)O)[C@@H]3C[C@H]12 (stereo partly drawn)	11.6%	39%	
4.73 µg/mL (≈ 11.6 µM)	6.74 µg/mL (≈ 16.6 µM)			CC(C)C(=O)OC[C@@H]1C[C@@]23CC[C@@H]4[C@](CO)(C(=O)O)CCC[C@@]4(C)[C@@H]2CC[C@H]1C3	67%	83.2%	Non-toxic
> 10 µg/mL	> 10 µg/mL		Not Active	CC1=CC(=O)CC(C)(C)[C@@]1(O)/C=C/C(C)O (stereo partly drawn)	3.57%	3.42%	
> 10 µg/mL	> 10 µg/mL			C[C@@]1(CO)C[C@@H](O)C[C@@]2(C)[C@@H]3CC[C@](C)(C(O)CO)C=C3CC[C@H]12 (stereo partly drawn)	7.88%	6.78%	
> 10 µg/mL	> 10 µg/mL			C[C@]1(CO)[C@H]2CCC3=C[C@@](C)(C(O)CO)CC[C@H]3[C@]2(C)CC[C@H]1O (stereo partly drawn)	17.8%	-0.74%	
> 10 µg/mL	5.59 µg/mL (≈ 16.7 µM)			C[C@@]12CCC[C@@](C)(C(=O)O)[C@H]1CC[C@@]13C[C@H](CC[C@H]12)[C@H](C(=O)O)C3	69.6%	31.5%	Non-toxic
> 10 µg/mL	6.46 µg/mL (≈ 16.5 µM)	6.8 µM		C=C(C)C(=O)O[C@H]1[C@H]2C(=C)C(=O)O[C@@H]2/C=C(\CO)CC/C=C(/C=O)[C@H]1OCC	72.4%	22.3%	Non-toxic
> 10 µg/mL	> 10 µg/mL	14.9 µM		C=C1C(=O)O[C@H]2C[C@@H](C)[C@@H]3CC[C@H](O)[C@@]3(C)C[C@H]12 [PSEUDOGUAIANOLIDE]	17%	46.9%	
> 10 µg/mL	> 10 µg/mL			C[C@@]12CCC[C@@](CO)(C(=O)O)[C@H]1CC[C@]13C[C@@H](CO)[C@@H](CC[C@H]12)C3	7.81%	15.7%	
> 10 µg/mL	> 10 µg/mL	6.4 µM		C=C1C(=O)O[C@@H]2C[C@]3(C)[C@@H](CCC(C)=O)[C@@H]3C[C@H]12	41.2%	11.2%	
4.34 µg/mL (≈ 12.9 µM)	3.63 µg/mL (≈ 10.8 µM)			C[C@@]12CCC[C@@](C)(C(=O)O)[C@H]1CC[C@@]13C[C@H](CC[C@H]12)[C@@](O)(CO)C3	89.2%	70.8%	Non-toxic

From ChEMBL document CHEMBL3352285, “In vitro anti-inflammatory effects of diterpenoids and sesquiterpenoids from traditional Chinese medicine Siegesbeckia pubescens” (Bioorg Med Chem Lett, 2014)
